Key:
[1] = pH stability for quercetin in yeast, in L. casei and unincorporated quercetin; assay type: physicochemical; conditions: pH 3, 4, 5, 6 over time; extraction at every time point
Experimental: A comparative pH test at different pH's (3, 4, 5, 6) was done with quercetin incorporated in yeast, in L. casei and un-incorporated quercetin. At every time point, an extraction was done to spectrophotometrically determine the amount of quercetin retained. […] The percent retention is calculated by dividing the absorbance value at each time point with the absorbance value at the initial t=0.

[2] = Incorporation of quercetin in microbial carriers, extraction and absorbance at 388 nm (incorporation yield and efficiency); assay type: physicochemical; conditions: cell incorporation process
Experimental: The phrases “loading efficiency” or “incorporation efficiency” interchangeably refer to the incorporation efficiency on both wet basis determined as follows: IE(%)=CE/CT×100, where CE is the mass of extracted bioactive from the lipid membrane microcapsules after incorporation on a wet basis and CT is the amount of bioactive initially added to the lipid membrane microcapsules. A standard calibration curve was spectrophotometrically obtained for quercetin (QU995 is the food-grade form of quercetin) in dimethyl sulfoxide (DMSO). Incorporation of quercetin in yeast cells with ethanol-buffer mixture was achieved by a non-thermal, vacuum infusion method. Inactivated food-grade yeast cells were used to incorporate quercetin with an initial aim of achieving an incorporation yield or loading percent of 0.5%. The dry yeast cells were first washed with deionized water and an ethanol solution. The washed cells were weighed for use as control (without quercetin) and sample (with quercetin). The incorporation was done in high vacuum conditions and the control and sample were incubated in the dark. […] A 500 μL of supernatant was removed and measured absorbance at 388 nm. […] The problem encountered in a quadruple infusion was crystallization of quercetin around carriers, instead of being incorporated (determined by a multiphoton fluorescence imaging). […]

pH stability (amount of quercetin retained) [1]: rapid degradation over time
amount of quercetin that can efficiently incorporate into the cells [2]: 12.517 mg/g
Compound: O=c1c(O)c(-c2ccc(O)c(O)c2)oc2cc(O)cc(O)c12 [quercetin]

From patent US20200164006A1, “METHODS AND COMPOSITIONS OF INCORPORATING A BIOACTIVE AGENT AND USE THEREOF” (INNOVANUTRA INC., priority 2017, published 2020)
